Columns and labels:
[1] = target: T1, HiBit-BRG1 fusion protein (Homo sapiens, UniProt P51532); assay: HiBiT-BRG1 cell-based degradation assay (Nano-Glo HiBiT Lytic Detection, 24 h); conditions: stable HeLa cell line expressing HiBit-BRG1 and LgBit; for Dmax: read-out: BRG1 HiBit Degradation Maximum (%); for DC50: read-out: BRMG1 HiBit Degradation IC50
T1 construct: expressed in transfected cells
Procedure: (§1) Procedure: A stable HeLa cell line expressing HiBiT-BRM was generated. On day 0, 5000 cells were seeded in 40 μL of media into each well of 384-well cell culture plates. On day 1, cells were treated with 120 nL DMSO or 120 nL of 3-fold serially DMSO-diluted compounds (10 points in duplicate with 30 μM as final top dose). Subsequently plates were incubated for 24 h in a standard tissue culture incubator and equilibrated at room temperature for 15 minutes. Nano-Glo HiBiT Lytic Detection System (Promega N3050) reagent was freshly prepared and 20 ul was added to each well. Upon addition of this LgBit-containing reagent, the HiBiT and LgBiT proteins associate to form the luminescent NanoBiT Iuciferase. The plates were shaken for 10 minutes at room temperature and the bioluminescence read using an EnVision plate reader (PerkinElmer).
For measurement of BRG1 degradation, a stable HeLa cell line expressing HiBit-BRG1 and LgBit was generated. The same protocol as above was then followed.
(§2) The degradation % was calculated using the following formula: % degradation=100%-100%×(LumSample−LumLC)/(LumHC−LumLC). DMSO treated cells are employed as High Control (HC) and 2 μM of a known BRM/BRG1 degrader standard treated cells are employed as Low Control (LC).

[2] = target: T2, HiBit-BRM fusion protein (Homo sapiens, UniProt P51531); assay: HiBiT-BRM cell-based degradation assay (Nano-Glo HiBiT Lytic Detection, 24 h); conditions: stable HeLa cell line expressing HiBiT-BRM; for DC50: read-out: BRM HiBit Degradation IC50
T2 construct: expressed in transfected cells
T2 sequence (P51531 whole entry, the tested form may be a part): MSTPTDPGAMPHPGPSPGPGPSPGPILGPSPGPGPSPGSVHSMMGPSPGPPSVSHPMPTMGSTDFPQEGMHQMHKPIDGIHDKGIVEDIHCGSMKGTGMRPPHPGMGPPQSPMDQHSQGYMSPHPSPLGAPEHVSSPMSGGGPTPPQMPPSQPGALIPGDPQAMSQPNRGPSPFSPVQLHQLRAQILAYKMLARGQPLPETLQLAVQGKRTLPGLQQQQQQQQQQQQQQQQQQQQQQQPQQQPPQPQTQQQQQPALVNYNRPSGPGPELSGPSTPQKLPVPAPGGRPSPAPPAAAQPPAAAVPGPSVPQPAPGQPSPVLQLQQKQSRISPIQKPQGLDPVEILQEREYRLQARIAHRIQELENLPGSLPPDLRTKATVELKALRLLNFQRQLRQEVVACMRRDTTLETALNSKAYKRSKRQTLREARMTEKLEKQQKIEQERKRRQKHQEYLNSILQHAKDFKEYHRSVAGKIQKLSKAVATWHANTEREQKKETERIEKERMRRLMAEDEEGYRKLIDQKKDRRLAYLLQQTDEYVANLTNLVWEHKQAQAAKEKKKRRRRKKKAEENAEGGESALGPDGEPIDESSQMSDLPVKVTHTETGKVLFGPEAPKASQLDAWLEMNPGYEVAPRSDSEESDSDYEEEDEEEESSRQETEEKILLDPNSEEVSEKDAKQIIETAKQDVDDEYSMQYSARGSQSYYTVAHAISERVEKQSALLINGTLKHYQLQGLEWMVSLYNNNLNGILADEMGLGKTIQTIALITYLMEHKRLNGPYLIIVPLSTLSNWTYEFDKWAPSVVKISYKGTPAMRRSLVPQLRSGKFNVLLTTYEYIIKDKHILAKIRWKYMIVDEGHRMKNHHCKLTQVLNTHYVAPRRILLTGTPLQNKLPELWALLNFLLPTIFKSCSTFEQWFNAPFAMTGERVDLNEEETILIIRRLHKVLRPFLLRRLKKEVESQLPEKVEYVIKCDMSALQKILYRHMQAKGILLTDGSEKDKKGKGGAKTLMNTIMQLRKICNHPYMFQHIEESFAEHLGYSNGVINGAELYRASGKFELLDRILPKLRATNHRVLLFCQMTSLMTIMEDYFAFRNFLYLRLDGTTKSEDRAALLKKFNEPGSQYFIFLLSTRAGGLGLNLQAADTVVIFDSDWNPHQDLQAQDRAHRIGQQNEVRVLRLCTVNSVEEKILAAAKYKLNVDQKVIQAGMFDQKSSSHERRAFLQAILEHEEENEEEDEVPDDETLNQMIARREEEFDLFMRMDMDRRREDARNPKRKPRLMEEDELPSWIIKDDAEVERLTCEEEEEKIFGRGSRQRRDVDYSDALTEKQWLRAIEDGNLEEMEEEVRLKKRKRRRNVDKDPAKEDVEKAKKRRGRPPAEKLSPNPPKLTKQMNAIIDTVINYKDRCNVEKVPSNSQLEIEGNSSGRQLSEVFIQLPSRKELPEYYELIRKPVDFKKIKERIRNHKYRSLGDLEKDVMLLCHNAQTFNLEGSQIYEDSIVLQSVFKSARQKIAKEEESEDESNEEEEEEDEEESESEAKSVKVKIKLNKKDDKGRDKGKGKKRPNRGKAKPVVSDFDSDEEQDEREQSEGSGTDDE
Procedure: as §1, §2

T1 sequence (P51532 whole entry, the tested form may be a part): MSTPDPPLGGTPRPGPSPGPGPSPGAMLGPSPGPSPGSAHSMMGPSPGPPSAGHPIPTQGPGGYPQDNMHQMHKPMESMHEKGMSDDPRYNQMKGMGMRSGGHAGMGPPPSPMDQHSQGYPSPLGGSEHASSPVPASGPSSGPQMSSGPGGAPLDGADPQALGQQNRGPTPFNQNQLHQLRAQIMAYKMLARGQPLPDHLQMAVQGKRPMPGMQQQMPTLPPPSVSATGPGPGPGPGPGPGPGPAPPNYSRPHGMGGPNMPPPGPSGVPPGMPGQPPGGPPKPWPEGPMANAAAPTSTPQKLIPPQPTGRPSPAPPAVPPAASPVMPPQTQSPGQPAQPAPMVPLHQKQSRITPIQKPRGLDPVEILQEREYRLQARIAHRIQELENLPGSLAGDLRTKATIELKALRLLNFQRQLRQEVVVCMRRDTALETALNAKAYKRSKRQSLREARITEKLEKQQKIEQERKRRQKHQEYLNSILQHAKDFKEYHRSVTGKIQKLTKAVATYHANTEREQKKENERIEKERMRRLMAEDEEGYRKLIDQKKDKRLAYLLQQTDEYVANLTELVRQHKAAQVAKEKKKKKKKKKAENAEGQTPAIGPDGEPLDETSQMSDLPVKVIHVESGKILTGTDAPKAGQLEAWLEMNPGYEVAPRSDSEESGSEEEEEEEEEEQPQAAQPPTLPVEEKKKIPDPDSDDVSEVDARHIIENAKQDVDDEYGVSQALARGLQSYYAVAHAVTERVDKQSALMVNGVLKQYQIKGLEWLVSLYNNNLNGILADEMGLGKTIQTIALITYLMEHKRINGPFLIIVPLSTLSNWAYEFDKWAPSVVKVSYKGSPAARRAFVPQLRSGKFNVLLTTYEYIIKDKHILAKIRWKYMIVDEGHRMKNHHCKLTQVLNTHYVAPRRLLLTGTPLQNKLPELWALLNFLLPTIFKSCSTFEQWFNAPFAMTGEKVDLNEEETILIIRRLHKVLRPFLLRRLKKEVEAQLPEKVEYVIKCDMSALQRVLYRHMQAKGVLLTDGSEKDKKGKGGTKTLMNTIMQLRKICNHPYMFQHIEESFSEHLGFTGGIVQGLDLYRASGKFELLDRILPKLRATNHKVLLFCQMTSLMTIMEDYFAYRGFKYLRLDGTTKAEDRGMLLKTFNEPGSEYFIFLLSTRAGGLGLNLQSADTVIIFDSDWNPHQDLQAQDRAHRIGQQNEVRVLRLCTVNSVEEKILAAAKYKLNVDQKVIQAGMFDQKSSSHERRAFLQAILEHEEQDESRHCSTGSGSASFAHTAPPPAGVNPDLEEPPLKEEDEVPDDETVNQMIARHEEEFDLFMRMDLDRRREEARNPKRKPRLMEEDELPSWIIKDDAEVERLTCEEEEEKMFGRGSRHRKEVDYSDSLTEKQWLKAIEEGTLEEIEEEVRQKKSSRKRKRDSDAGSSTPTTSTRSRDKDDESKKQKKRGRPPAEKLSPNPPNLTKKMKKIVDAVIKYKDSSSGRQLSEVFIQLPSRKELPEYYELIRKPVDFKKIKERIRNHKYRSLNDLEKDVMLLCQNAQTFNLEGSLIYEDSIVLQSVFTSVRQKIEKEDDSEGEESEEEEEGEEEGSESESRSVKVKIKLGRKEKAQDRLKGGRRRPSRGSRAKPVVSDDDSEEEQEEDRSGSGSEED

SMILES: Cc1ncsc1-c1ccc([C@H](C)NC(=O)[C@@H]2C[C@@H](O)CN2C(=O)[C@@H](c2cc(N3CC4(C3)CN(c3sc5nnc(-c6ccccc6O)cc5c3C)C4)no2)C(C)C)cc1 [Compound 79, (2S,4R)-4-hydroxy-1-((R)-2-(3-(6-(3-(2-hydroxyphenyl)-5-methylthieno[2,3-c]pyridazin-6-yl)-2,6-diazaspiro[3.3]heptan-2-yl)isoxazol-5-yl)-3-methylbutanoyl)-N-((S)-1-(4-(4-methylthiazol-5-yl)phenyl)ethyl)pyrrolidine-2-carboxamide]
- Dmax [1]: > 50%
- BRM HiBit Degradation Maximum (%) [2]: A (“A” indicates maximum degradation ≥75%)
- DC50 [2]: < 10 nM

SMILES: Cc1ncsc1-c1ccc([C@H](C)NC(=O)[C@@H]2C[C@@H](O)CN2C(=O)[C@@H](c2cc(N3CCN(c4sc5nnc(-c6ccccc6O)cc5c4C)CC3)no2)C(C)C)cc1 [Compound 80, (2S,4R)-4-hydroxy-1-((R)-2-(3-(4-(3-(2-hydroxyphenyl)-5-methylthieno[2,3-c]pyridazin-6-yl)piperazin-1-yl)isoxazol-5-yl)-3-methylbutanoyl)-N-((S)-1-(4-(4-methylthiazol-5-yl)phenyl)ethyl)pyrrolidine-2-carboxamide]
- Dmax [1]: < 50%
- BRM HiBit Degradation Maximum (%) [2]: A (“A” indicates maximum degradation ≥75%)
- DC50 [2]: > 10 nM

SMILES: Cc1ncsc1-c1ccc([C@H](C)NC(=O)[C@@H]2C[C@@H](O)CN2C(=O)[C@@H](c2cc(-c3cnc(N4CCC(c5sc6nnc(-c7ccccc7O)cc6c5C)CC4)cn3)no2)C(C)C)cc1 [Compound 28, (2S,4R)-4-hydroxy-1-((R)-2-(3-(5-(4-(3-(2-hydroxyphenyl)-5-methylthieno[2,3-c]pyridazin-6-yl)piperidin-1-yl)pyrazin-2-yl)isoxazol-5-yl)-3-methylbutanoyl)-N-((S)-1-(4-(4-methylthiazol-5-yl)phenyl)ethyl)pyrrolidine-2-carboxamide]
- Dmax [1]: < 50%
- DC50 [1]: > 1000 nM
- BRM HiBit Degradation Maximum (%) [2]: A (“A” indicates maximum degradation ≥75%)
- DC50 [2]: < 10 nM

SMILES: Cc1ncsc1-c1ccc([C@H](C)NC(=O)[C@@H]2C[C@@H](O)CN2C(=O)[C@@H](c2cc(-c3ccc(N4CCC(c5sc6nnc(-c7ccccc7O)cc6c5C)CC4)c(F)c3)no2)C(C)C)cc1 [Compound 103, (2S,4R)-1-((R)-2-(3-(3-fluoro-4-(4-(3-(2-hydroxyphenyl)-5-methylthieno[2,3-c]pyridazin-6-yl)piperidin-1-yl)phenyl)isoxazol-5-yl)-3-methylbutanoyl)-4-hydroxy-N-((S)-1-(4-(4-methylthiazol-5-yl)phenyl)ethyl)pyrrolidine-2-carboxamide]
- Dmax [1]: < 50%
- BRM HiBit Degradation Maximum (%) [2]: A (“A” indicates maximum degradation ≥75%)
- DC50 [2]: < 10 nM

SMILES: Cc1ncsc1-c1ccc([C@H](C)NC(=O)[C@@H]2C[C@@H](O)CN2C(=O)[C@@H](c2cc(N3C[C@@H]4[C@H](C3)[C@H]4c3cc4nnc(-c5ccccc5O)cc4s3)no2)C(C)C)cc1 [Compound 70, (2S,4R)-4-hydroxy-1-((2R)-2-(3-((1R,5S)-6-(3-(2-hydroxyphenyl)thieno[3,2-c]pyridazin-6-yl)-3-azabicyclo[3.1.0]hexan-3-yl)isoxazol-5-yl)-3-methylbutanoyl)-N-((S)-1-(4-(4-methylthiazol-5-yl)phenyl)ethyl)pyrrolidine-2-carboxamide]
- Dmax [1]: < 50%
- BRM HiBit Degradation Maximum (%) [2]: B (“B” indicates maximum degradation ≥50%)
- DC50 [2]: < 10 nM

SMILES: Cc1ncsc1-c1ccc([C@H](C)NC(=O)[C@@H]2C[C@@H](O)CN2C(=O)[C@@H](c2cc(Oc3ccnc(N4CCC(c5sc6nnc(-c7ccccc7O)cc6c5C)CC4)n3)no2)C(C)C)cc1 (single isomer, unassigned) [Compound 62]
- Dmax [1]: < 50%
- DC50 [1]: > 1000 nM
- BRM HiBit Degradation Maximum (%) [2]: C (“C” indicates maximum degradation <50%)
- DC50 [2]: > 1000 nM

SMILES: Cc1ncsc1-c1ccc([C@H](C)NC(=O)[C@@H]2C[C@@H](O)CN2C(=O)[C@@H](c2cc(-c3ccc(N4CCC(c5sc6nnc(-c7ccccc7O)cc6c5C)CC4)cc3)no2)C(C)C)cc1 [Compound 26, (2S,4R)-4-hydroxy-1-((R)-2-(3-(4-(4-(3-(2-hydroxyphenyl)-5-methylthieno[2,3-c]pyridazin-6-yl)piperidin-1-yl)phenyl)isoxazol-5-yl)-3-methylbutanoyl)-N-((S)-1-(4-(4-methylthiazol-5-yl)phenyl)ethyl)pyrrolidine-2-carboxamide]
- Dmax [1]: < 50%
- DC50 [1]: > 1000 nM
- BRM HiBit Degradation Maximum (%) [2]: A (“A” indicates maximum degradation ≥75%)
- DC50 [2]: < 10 nM

SMILES: Cc1ncsc1-c1ccc([C@H](C)NC(=O)[C@@H]2C[C@@H](O)CN2C(=O)[C@@H](c2cc(N3CC[C@@H](c4sc5nnc(-c6ccccc6O)cc5c4C)C3)no2)C(C)C)cc1 [Compound 74, (2S,4R)-4-hydroxy-1-((R)-2-(3-((R)-3-(3-(2-hydroxyphenyl)-5-methylthieno[2,3-c]pyridazin-6-yl)pyrrolidin-1-yl)isoxazol-5-yl)-3-methylbutanoyl)-N-((S)-1-(4-(4-methylthiazol-5-yl)phenyl)ethyl)pyrrolidine-2-carboxamide]
- Dmax [1]: > 50%
- DC50 [1]: > 10 nM
- BRM HiBit Degradation Maximum (%) [2]: A (“A” indicates maximum degradation ≥75%)
- DC50 [2]: < 10 nM

SMILES: Cc1ncsc1-c1ccc([C@H](C)NC(=O)[C@@H]2C[C@@H](O)CN2C(=O)[C@@H](c2cc(N3CC4(CC(c5cc6cc(-c7ccccc7O)nnc6s5)C4)C3)no2)C(C)C)cc1 (single isomer, unassigned) [Compound 1]
- Dmax [1]: > 75%
- DC50 [1]: > 10 nM
- BRM HiBit Degradation Maximum (%) [2]: A (“A” indicates maximum degradation ≥75%)
- DC50 [2]: < 10 nM

SMILES: Cc1ncsc1-c1ccc([C@H](C)NC(=O)[C@@H]2C[C@@H](O)CN2C(=O)[C@@H](c2cc(N3CC[C@H](c4cc5nnc(-c6ccccc6O)cc5s4)C3)no2)C(C)C)cc1 [Compound 73, (2S,4R)-4-hydroxy-1-((R)-2-(3-((S)-3-(3-(2-hydroxyphenyl)thieno[3,2-c]pyridazin-6-yl)pyrrolidin-1-yl)isoxazol-5-yl)-3-methylbutanoyl)-N-((S)-1-(4-(4-methylthiazol-5-yl)phenyl)ethyl)pyrrolidine-2-carboxamide]
- Dmax [1]: < 50%
- BRM HiBit Degradation Maximum (%) [2]: A (“A” indicates maximum degradation ≥75%)
- DC50 [2]: < 10 nM

SMILES: Cc1ncsc1-c1ccc([C@H](C)NC(=O)[C@@H]2C[C@@H](O)CN2C(=O)[C@@H](c2cc(N3CC[C@@H](c4cc5nnc(-c6ccccc6O)cc5s4)C3)no2)C(C)C)cc1 [Compound 72, (2S,4R)-4-hydroxy-1-((R)-2-(3-((R)-3-(3-(2-hydroxyphenyl)thieno[3,2-c]pyridazin-6-yl)pyrrolidin-1-yl)isoxazol-5-yl)-3-methylbutanoyl)-N-((S)-1-(4-(4-methylthiazol-5-yl)phenyl)ethyl)pyrrolidine-2-carboxamide]
- Dmax [1]: < 50%
- BRM HiBit Degradation Maximum (%) [2]: A (“A” indicates maximum degradation ≥75%)
- DC50 [2]: < 10 nM

SMILES: Cc1ncsc1-c1ccc([C@H](C)NC(=O)[C@@H]2C[C@@H](O)CN2C(=O)[C@@H](c2cc(-c3cnc(N4CC(c5sc6nnc(-c7ccccc7O)cc6c5C)C4)nc3)no2)C(C)C)cc1 (single isomer, unassigned) [Compound 63]
- Dmax [1]: < 50%
- DC50 [1]: > 1000 nM
- BRM HiBit Degradation Maximum (%) [2]: A (“A” indicates maximum degradation ≥75%)
- DC50 [2]: < 10 nM

SMILES: Cc1ncsc1-c1ccc([C@H](C)NC(=O)[C@@H]2C[C@@H](O)CN2C(=O)[C@@H](c2cc(N3CCC4(CC3)CC(c3cc5nnc(-c6ccccc6O)cc5s3)C4)no2)C(C)C)cc1 [Compound 12, (2S,4R)-4-hydroxy-1-((R)-2-(3-(2-(3-(2-hydroxyphenyl)thieno[3,2-c]pyridazin-6-yl)-7-azaspiro[3.5]nonan-7-yl)isoxazol-5-yl)-3-methylbutanoyl)-N—((S)-1-(4-(4-methylthiazol-5-yl)phenyl)ethyl)pyrrolidine-2-carboxamide]
- Dmax [1]: > 50%
- DC50 [1]: > 100 nM
- BRM HiBit Degradation Maximum (%) [2]: A (“A” indicates maximum degradation ≥75%)
- DC50 [2]: < 10 nM

SMILES: Cc1cc(-c2cc([C@H](C(=O)N3C[C@H](O)C[C@H]3C(=O)N[C@@H](C)c3ccc(-c4scnc4C)cc3)C(C)C)on2)cnc1N1CC[C@@H](c2sc3nnc(-c4ccccc4O)cc3c2C)C1 [Compound 101, (2S,4R)-4-hydroxy-1-((R)-2-(3-(6-((R)-3-(3-(2-hydroxyphenyl)-5-methylthieno[2,3-c]pyridazin-6-yl)pyrrolidin-1-yl)-5-methylpyridin-3-yl)isoxazol-5-yl)-3-methylbutanoyl)-N-((S)-1-(4-(4-methylthiazol-5-yl)phenyl)ethyl)pyrrolidine-2-carboxamide]
- Dmax [1]: < 50%
- BRM HiBit Degradation Maximum (%) [2]: A (“A” indicates maximum degradation ≥75%)
- DC50 [2]: > 10 nM

From patent US20250304596A1, “PYRAZINE DERIVATIVES AND USES THEREOF” (FOGHORN THERAPEUTICS INC., priority 2022, published 2025)
